Values quoted from earlier work as cited in PMC9689602, “Evaluation of ^68Ga-Radiolabeled Peptides for HER2 PET Imaging” (Diagnostics, 2022).
Read-outs that look alike come from different tables or passages of the source. Blank lines part the entries; values can stand above or below the molecule they belong to.

Columns and labels:
mice = details: up to 1 g/kg intravenous injection
Description: One drawback for peptides is their susceptibility to degradation from proteases present within organisms. […] Phosphoramidon can be used as an aid to protect peptides from quick degradation when evaluating our peptides in vivo. […] We are using phosphoramidon as a to ...

HER2 = target: HER2
Experimental: Peptide imaging agents allow for quicker injection to imaging times along with a potential decrease in dose to the patient by using a shorter-lived radioisotope. Radiolabeled peptides are currently used in the clinic for the diagnosis of several cancer types. A widely used example is [^68Ga]DOTATATE (NETSPOT®) which was given FDA approval in 2016 and is used for imaging somatostatin receptor type 2 on neuroendocrine cancer with patient imaging 40 to 90 min after intravenous administration. Several HER2-targeting peptides have been reported which could have the potential to be ...

Molecule: CC(C)C[C@H](NP(=O)(O)O[C@@H]1O[C@@H](C)[C@H](O)[C@@H](O)[C@H]1O)C(=O)N[C@@H](Cc1c[nH]c2ccccc12)C(=O)O [phosphoramidon, Phosphoramidon]
toxicity in mice (mice): low toxicity and no death

Molecule: KCCYSL
Kd (HER2; binding to HER2, read-out: equilibrium dissociation constant): 30 µM

Kd (KCCYSL peptide): 30 µM
Molecule: HER2 (from UniProt P04626)

Kd (HER2; highest affinity in OBOC library, read-out: affinity (Kd)): 0.0186 µM
Molecule: DTFPYLGWWNPNEYRY
